Measurements: paper PMC4498294, “Tetrahydroisoquinolines affect the whole-cell phenotype of Mycobacterium tuberculosis by inhibiting the ATP-dependent MurE ligase” (Journal of Antimicrobial Chemotherapy, 2015)
Values after ≈ are worked out from the molar mass of the structure shown. Read-outs that look alike come from different tables or passages of the source.

Experiments:
[1] = tested on: M. tuberculosis H37Rv; details: virulent M. tuberculosis H37Rv strain; cited from earlier work
[2] = tested on: M. bovis BCG Pasteur; assay: microbe, parasite or virus in culture; assay type: cell-based; details: Mycobacterium tuberculosis variant bovis BCG, BCG
[3] = tested on: murine macrophage cell line RAW264.7; assay: Eukaryotic cell toxicity assay, RAW264.7; assay type: cell-based; details: Mus musculus, read-out: GIC50 RAW264.7
[4] = target: MurE (Rv2158c) protein of M. tuberculosis H37Rv (Mycobacterium tuberculosis, UniProt P9WJL3); assay: Mtb-MurE HPLC inhibition assay; assay type: biochemical; details: HPLC assay, 37°C 30 min
Chain of MurE (Rv2158c) protein of M. tuberculosis H37Rv (P9WJL3 whole entry, looked up): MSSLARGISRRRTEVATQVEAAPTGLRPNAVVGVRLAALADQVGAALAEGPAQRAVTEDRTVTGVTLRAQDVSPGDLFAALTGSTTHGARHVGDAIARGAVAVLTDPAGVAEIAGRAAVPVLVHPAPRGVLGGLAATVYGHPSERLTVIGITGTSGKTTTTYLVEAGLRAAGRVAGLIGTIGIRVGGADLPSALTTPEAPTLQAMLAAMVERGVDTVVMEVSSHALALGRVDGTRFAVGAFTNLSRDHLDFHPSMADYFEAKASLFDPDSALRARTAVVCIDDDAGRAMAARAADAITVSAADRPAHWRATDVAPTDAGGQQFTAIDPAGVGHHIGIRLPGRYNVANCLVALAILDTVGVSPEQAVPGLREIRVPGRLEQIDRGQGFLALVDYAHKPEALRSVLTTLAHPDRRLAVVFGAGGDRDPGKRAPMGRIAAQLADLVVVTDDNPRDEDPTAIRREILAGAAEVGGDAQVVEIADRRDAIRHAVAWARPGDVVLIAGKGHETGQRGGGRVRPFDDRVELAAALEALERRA

[5] = Human microsome stability assay; assay type: in vitro ADME; parameters: half-life: dose or concentration left out as unconfirmed; details: for half-life: human, liver microsomes, read-out: t1/2 microsomes
Procedure: (§1) Microsomes and NADPH were then added to the solution and the reaction was incubated at 37°C for up to 60 min. Acetonitrile (300 μL) with internal standard was added to stop the incubation. The samples were centrifuged and the supernatant was then analysed by HPLC-MS/MS to detect the parent compound.

[6] = Human hepatocyte stability assay; assay type: in vitro ADME; parameters: half-life / hepatocyte CLint: dose or concentration left out as unconfirmed; details: for hepatic extraction ratio: hepatocyte stability assay; for half-life / hepatocyte CLint: human, hepatocytes; for half-life: read-out: t1/2 hepatocytes; for hepatocyte CLint: in vivo hepatic intrinsic clearance prediction values
Procedure: as §1, with “The compounds originally dissolved in DMSO were added to PBS to give a resulting concentration of 1 mM. Hepatocytes” for “Microsomes and NADPH”, “120” for “60”, “Acetonitrile” for “Acetonitrile (300 μL)”

[7] = Aqueous kinetic solubility; assay type: physicochemical; details: aqueous with cosolvent or surfactant or cyclodextrin, kinetic from dmso stock, 5% DMSO in PBS, 21°C
Procedure: The compounds were equilibrated in 5% DMSO in PBS at 21°C for 24 h. The samples were then centrifuged at 15000 g for 10 min. A 100 μL sample of the supernatant was carefully collected and the soluble amount of compound quantified using LC-MS/MS. A standard curve for each compound was prepared in 100% acetonitrile. Solubility results are reported as low (<0.1 mg/mL), medium (0.1–0.5 mg/mL) and high (>0.5 mg/mL).

[8] = target: T1, CYP 1A2 (Homo sapiens, UniProt P05177); assay: CYP450 inhibition assay, CYP 1A2; assay type: in vitro ADME; parameters: dose or concentration left out as unconfirmed; details: CYP baculosomes with recombinant human CYP1A2, probe fluorogenic substrate (not named); human recombinant enzymes; read-out: Mean % inhibtion CYP 1A2
T1 construct: purchased; host or cells: baculosomes (insect-cell microsomes; own knowledge)
T1 sequence (P05177 1-516): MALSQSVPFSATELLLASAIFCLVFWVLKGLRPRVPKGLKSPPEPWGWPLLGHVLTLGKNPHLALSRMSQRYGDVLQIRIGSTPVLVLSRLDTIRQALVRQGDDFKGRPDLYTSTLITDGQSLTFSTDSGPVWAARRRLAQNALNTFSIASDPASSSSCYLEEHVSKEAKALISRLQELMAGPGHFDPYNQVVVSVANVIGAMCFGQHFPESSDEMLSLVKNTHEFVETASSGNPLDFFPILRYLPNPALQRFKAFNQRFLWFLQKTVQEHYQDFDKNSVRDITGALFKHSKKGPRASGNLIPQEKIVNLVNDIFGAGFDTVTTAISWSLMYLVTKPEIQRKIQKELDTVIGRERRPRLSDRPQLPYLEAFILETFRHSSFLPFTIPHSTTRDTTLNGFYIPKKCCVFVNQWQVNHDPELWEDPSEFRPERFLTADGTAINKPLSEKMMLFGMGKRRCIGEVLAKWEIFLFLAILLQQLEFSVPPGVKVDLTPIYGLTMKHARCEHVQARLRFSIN
Procedure: (§2) The compounds originally dissolved in DMSO were added to PBS to give a resulting concentration of […]. CYP baculosomes containing cDNA for a single human P450 isozyme, the fluorogenic substrate and the NADPH were added to the test solution. The reaction was incubated at 37°C for at least 1 h. Fluorogenic substrates metabolized by CYP enzymes result in highly fluorescent products in aqueous solution. The inhibition of CYP prevents this metabolism, which corresponds to a decrease in the fluorescence signal. The fluorescence was measured on a plate reader.

[9] = target: T2, CYP 2C9 (Homo sapiens, UniProt P11712); assay: CYP450 inhibition assay, CYP 2C9; assay type: in vitro ADME; parameters: dose or concentration left out as unconfirmed; details: CYP baculosomes with recombinant human CYP2C9, probe fluorogenic substrate (not named); human recombinant enzymes; read-out: Mean % inhibtion CYP 2C9
T2 construct: purchased; host or cells: baculosomes (insect-cell microsomes; own knowledge)
T2 sequence (P11712 whole entry): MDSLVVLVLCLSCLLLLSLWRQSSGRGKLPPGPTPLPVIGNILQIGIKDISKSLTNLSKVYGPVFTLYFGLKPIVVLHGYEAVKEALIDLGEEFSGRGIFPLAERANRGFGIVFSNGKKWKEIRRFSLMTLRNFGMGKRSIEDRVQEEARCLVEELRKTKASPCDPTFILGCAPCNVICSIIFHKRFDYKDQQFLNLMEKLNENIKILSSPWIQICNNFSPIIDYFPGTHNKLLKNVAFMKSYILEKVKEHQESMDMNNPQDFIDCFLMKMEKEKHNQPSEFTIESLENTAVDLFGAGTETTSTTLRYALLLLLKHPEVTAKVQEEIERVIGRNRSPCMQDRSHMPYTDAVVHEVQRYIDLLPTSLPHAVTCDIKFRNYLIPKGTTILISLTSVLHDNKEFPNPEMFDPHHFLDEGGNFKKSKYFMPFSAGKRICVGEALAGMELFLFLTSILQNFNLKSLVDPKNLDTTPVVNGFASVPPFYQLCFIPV
Procedure: as §2

[10] = target: T3, CYP 2C19 (Homo sapiens, UniProt P33261); assay: CYP450 inhibition assay, CYP 2C19; assay type: in vitro ADME; parameters: dose or concentration left out as unconfirmed; details: CYP baculosomes with recombinant human CYP2C19, probe fluorogenic substrate (not named); human recombinant enzymes; read-out: Mean % inhibtion CYP 2C19
T3 construct: purchased; host or cells: baculosomes (insect-cell microsomes; own knowledge)
T3 sequence (P33261 whole entry): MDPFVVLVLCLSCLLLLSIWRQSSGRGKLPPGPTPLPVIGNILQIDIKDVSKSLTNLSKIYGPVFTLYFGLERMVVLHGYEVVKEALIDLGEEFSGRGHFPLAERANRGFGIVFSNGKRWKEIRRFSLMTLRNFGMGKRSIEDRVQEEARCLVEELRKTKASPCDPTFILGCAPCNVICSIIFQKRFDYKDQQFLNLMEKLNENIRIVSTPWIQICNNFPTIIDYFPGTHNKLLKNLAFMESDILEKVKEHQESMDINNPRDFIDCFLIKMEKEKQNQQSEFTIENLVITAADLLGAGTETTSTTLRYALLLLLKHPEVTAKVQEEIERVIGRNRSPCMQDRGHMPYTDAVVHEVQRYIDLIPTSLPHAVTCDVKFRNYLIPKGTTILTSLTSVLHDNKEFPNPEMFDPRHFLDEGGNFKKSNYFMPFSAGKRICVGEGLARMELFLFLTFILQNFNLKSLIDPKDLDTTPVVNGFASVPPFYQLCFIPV
Procedure: as §2

[11] = target: T4, CYP 2D6 (Homo sapiens, UniProt P10635); assay: CYP450 inhibition assay, CYP 2D6; assay type: in vitro ADME; parameters: dose or concentration left out as unconfirmed; details: CYP baculosomes with recombinant human CYP2D6, probe fluorogenic substrate (not named); human recombinant enzymes; read-out: Mean % inhibtion CYP 2D6
T4 construct: purchased; host or cells: baculosomes (insect-cell microsomes; own knowledge)
T4 sequence (P10635 whole entry): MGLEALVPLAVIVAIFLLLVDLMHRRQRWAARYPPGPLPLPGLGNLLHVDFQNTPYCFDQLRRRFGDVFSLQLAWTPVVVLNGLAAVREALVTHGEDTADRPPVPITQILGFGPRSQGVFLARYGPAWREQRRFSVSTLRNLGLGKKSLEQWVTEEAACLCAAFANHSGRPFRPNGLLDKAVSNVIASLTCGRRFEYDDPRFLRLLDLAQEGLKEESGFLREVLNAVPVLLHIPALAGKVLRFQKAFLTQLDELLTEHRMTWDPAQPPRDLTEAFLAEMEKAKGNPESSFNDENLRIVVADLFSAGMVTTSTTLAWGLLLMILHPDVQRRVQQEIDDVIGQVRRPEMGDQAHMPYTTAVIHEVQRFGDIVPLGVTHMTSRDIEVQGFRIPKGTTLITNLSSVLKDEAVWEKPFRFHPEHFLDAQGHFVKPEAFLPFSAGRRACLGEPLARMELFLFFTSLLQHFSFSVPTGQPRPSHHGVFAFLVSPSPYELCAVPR
Procedure: as §2

[12] = target: T5, CYP 3A4 (Homo sapiens, UniProt P08684); assay: CYP450 inhibition assay, CYP 3A4; assay type: in vitro ADME; parameters: dose or concentration left out as unconfirmed; details: CYP baculosomes with recombinant human CYP3A4, probe fluorogenic substrate (not named); human recombinant enzymes; read-out: Mean % inhibtion CYP 3A4
T5 construct: purchased; host or cells: baculosomes (insect-cell microsomes; own knowledge)
T5 sequence (P08684 whole entry): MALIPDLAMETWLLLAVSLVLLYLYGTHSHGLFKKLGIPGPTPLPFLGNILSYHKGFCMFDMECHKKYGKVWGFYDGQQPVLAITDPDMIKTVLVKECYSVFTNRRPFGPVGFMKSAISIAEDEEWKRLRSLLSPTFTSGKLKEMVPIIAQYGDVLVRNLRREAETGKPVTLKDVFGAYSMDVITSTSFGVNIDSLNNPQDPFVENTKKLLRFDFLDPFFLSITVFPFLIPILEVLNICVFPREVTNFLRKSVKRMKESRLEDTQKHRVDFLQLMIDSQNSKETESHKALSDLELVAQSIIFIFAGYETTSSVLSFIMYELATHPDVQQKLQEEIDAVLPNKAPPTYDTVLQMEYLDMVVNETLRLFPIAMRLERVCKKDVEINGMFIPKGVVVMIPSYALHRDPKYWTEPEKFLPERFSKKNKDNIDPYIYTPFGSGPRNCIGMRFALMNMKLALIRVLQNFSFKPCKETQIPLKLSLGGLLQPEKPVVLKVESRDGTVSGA
Procedure: as §2

[13] = MDCK cell permeability assay; assay type: in vitro ADME, canine; details: dog, MDCK-MDR1; MDCK MDR-1 monolayer, class
[14] = tested on: MDCK cells carrying the MDR-1 gene; assay: MDCK cell permeability assay; assay type: in vitro ADME, canine; details: MDCK MDR-1 monolayer, 10 μM, 30 min, apical to basolateral
[15] = tested on: MDR-1; assay: MDCK cell permeability assay; assay type: in vitro ADME, canine; details: dog, MDCK-MDR1, MDCK MDR-1 monolayer, 10 μM, 30 min; for Papp A→B at 30 min, 10 μM: apical to basolateral; for Papp B→A at 30 min, 10 μM: basolateral to apical
[16] = target: P-glycoprotein (Homo sapiens, UniProt P08183); assay: in vitro; details: dog, MDCK-MDR1
Chain of P-glycoprotein (P08183 whole entry): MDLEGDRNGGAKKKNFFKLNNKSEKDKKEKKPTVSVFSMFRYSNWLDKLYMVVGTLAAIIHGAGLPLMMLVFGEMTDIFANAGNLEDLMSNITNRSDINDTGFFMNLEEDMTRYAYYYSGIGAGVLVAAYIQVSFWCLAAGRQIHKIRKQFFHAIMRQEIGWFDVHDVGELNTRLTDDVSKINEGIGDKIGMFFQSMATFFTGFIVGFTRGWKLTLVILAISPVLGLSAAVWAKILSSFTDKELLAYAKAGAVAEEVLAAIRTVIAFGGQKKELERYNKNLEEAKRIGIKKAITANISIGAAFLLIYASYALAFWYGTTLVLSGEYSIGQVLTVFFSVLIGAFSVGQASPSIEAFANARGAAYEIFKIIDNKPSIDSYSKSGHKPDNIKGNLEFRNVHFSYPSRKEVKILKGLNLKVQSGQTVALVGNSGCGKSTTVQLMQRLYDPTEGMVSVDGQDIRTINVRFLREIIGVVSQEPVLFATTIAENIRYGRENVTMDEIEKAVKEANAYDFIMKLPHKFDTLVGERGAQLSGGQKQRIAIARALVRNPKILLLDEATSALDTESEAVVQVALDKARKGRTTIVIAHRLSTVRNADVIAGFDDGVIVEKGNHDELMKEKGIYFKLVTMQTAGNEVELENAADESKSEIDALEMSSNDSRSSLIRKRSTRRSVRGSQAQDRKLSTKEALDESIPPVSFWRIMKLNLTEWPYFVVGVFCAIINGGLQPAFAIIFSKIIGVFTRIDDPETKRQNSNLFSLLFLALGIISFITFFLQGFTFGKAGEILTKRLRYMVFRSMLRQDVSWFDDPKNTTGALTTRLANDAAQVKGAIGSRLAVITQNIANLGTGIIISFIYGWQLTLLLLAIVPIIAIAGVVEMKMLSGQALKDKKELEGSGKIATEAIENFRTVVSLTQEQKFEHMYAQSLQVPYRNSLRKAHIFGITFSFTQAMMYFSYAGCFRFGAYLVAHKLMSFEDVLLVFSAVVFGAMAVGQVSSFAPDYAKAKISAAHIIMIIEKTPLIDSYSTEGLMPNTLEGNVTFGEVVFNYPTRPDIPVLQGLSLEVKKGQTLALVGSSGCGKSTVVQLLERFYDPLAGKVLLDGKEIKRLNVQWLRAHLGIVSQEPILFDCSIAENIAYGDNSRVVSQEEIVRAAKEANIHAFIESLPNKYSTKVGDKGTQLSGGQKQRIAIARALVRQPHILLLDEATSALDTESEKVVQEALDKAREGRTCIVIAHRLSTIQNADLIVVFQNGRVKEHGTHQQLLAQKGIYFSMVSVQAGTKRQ
Procedure: All dose solutions contained 10 μM propranolol as an internal standard. MDCK cells carrying the MDR-1 gene were used to seed filters that were exposed to a fixed volume of the donor solution containing the compound of interest. The compound's ability to traverse the monolayer and appear in the receiver compartment was measured over a 30 min period. Bidirectional permeability measurements were derived by examining the transfer of compound from both the apical to the basolateral compartment and vice versa. Sample analysis was conducted using LC-MS/MS with the detection settings optimized for each test compound.

[17] = tested on: M. tuberculosis H37Rv; assay: SPOTi growth inhibition assay, M. tuberculosis H37Rv; assay type: cell-based; details: Mycobacterium tuberculosis, H37RV, SPOTi, read-out: MIC M. tuberculosis H37Rv
[18] = tested on: M. bovis BCG; assay type: cell-based; details: M. bovis BCG treated at 4 × MIC for 48 h (D-cycloserine 100 mg/L, 39 160 mg/L); 100 cells
[19] = 336 h, read-out: MIC M. bovis BCG, SPOTi, 2 weeks at 37°C
[20] = read-out: MIC M. bovis BCG, SPOTi, value in square brackets
[21] = RAW264.7, value in square brackets
[22] = murine macrophage cell line RAW264.7

SMILES: COc1cc2c(cc1OC)-c1c3c(cc4c1[C@H](C2)NCC4)OCO3 [(-)-Nordicentrine]
- MIC M. tuberculosis H37Rv [1]: 12.5 µg/mL (≈ 38.4 µM)

SMILES: Oc1ccc(Br)c2c1C(Cc1ccc3c(c1)OCO3)NCC2 (stereo not drawn) [Compound 28]
- MIC [2, 19]: 20 µg/mL
- MIC [2, 20]: 55 µM
- IC50 [3, 21]: 130 µM
- IC50 [3, 22]: 47 µg/mL
- IC50 [4]: < 111 µM
- t1/2 microsomes ([5]; human liver microsomes): 9.8 min
- Mean % microsome turnover ([5]; human liver microsomes, 0 min): -5.33e-15%
- Mean compound remaining ([5]; human liver microsomes, 0 min): 100.00
- Microsomal stability ([5]; human liver microsomes, 0 min): 4.60
- Mean % microsome turnover ([5]; human liver microsomes, 15 min): 64.61%
- Mean compound remaining ([5]; human liver microsomes, 15 min): 35.39
- Microsomal stability ([5]; human liver microsomes, 15 min): 3.57
- Mean % microsome turnover ([5]; human liver microsomes, 30 min): 88.00%
- Mean compound remaining ([5]; human liver microsomes, 30 min): 12.00
- Microsomal stability ([5]; human liver microsomes, 30 min): 2.48
- Mean % microsome turnover ([5]; human liver microsomes, 60 min): 92.24%
- Mean compound remaining ([5]; human liver microsomes, 60 min): 7.76
- Microsomal stability ([5]; human liver microsomes, 60 min): 2.03
- half-life [5]: 9.81 min
- hepatic extraction ratio [6]: > 0.6
- t1/2 hepatocytes ([6]; human hepatocytes): 23.2 min
- half-life ([6]; human hepatocytes): 23.2 min
- hepatocyte CLint [6]: 17.4 µL/min/1e6 cells
- solubility kinetic at 24 h [7]: 800 µg/mL (≈ 2210 µM)
- solubility at 24 h ([7]; read-out: aqueous solubility (class)): > 500 µg/mL
- inhibition [8]: 81.4%
- inhibition [9]: 81.8%
- inhibition [10]: 97.5%
- inhibition [11]: 92.9%
- inhibition [12]: 93.2%
- Papp A→B at 30 min, 10 μM [13]: < 2 ×10⁻⁶ cm/s
- Papp A-B [14]: 1.7 cm/sec, x10-6
- Papp A→B at 30 min, 10 μM [15]: 1.7 ×10⁻⁶ cm/s
- Papp B→A at 30 min, 10 μM [15]: 18.8 ×10⁻⁶ cm/s
- efflux ratio [16]: 11.3

SMILES: Oc1ccc(Br)c2c1C(c1cccc3c1OCO3)NCC2 (stereo not drawn) [Compound 35]
- MIC [2, 19]: 60 µg/mL
- MIC [2, 20]: 172 µM
- IC50 [3, 21]: 348 µM
- IC50 [3, 22]: 121 µg/mL
- IC50 [4]: < 111 µM
- Mean % microsome turnover ([5]; human liver microsomes, 0 min): -5.55e-15%
- Mean compound remaining ([5]; human liver microsomes, 0 min): 100.00
- Microsomal stability ([5]; human liver microsomes, 0 min): 4.60
- Mean % microsome turnover ([5]; human liver microsomes, 15 min): 3.85%
- Mean compound remaining ([5]; human liver microsomes, 15 min): 96.15
- Microsomal stability ([5]; human liver microsomes, 15 min): 4.57
- Mean % microsome turnover ([5]; human liver microsomes, 30 min): 14.54%
- Mean compound remaining ([5]; human liver microsomes, 30 min): 85.46
- Microsomal stability ([5]; human liver microsomes, 30 min): 4.45
- Mean % microsome turnover ([5]; human liver microsomes, 60 min): 30.44%
- Mean compound remaining ([5]; human liver microsomes, 60 min): 69.56
- Microsomal stability ([5]; human liver microsomes, 60 min): 4.24
- half-life [5]: 110 min
- hepatic extraction ratio [6]: > 0.6
- half-life ([6]; human hepatocytes): 78.6 min
- hepatocyte CLint [6]: 12.6 µL/min/1e6 cells
- solubility kinetic at 24 h [7]: 300 µg/mL (≈ 862 µM)
- inhibition [8]: 36.7%
- inhibition [9]: 44.9%
- inhibition [10]: 98.2%
- inhibition [11]: 80.7%
- inhibition [12]: 80%
- Papp A→B at 30 min, 10 μM [13]: 2 to 20 ×10⁻⁶ cm/s
- Papp A-B [14]: 3.2 cm/sec, x10-6
- Papp A→B at 30 min, 10 μM [15]: 3.2 ×10⁻⁶ cm/s
- Papp B→A at 30 min, 10 μM [15]: 38 ×10⁻⁶ cm/s
- efflux ratio [16]: 11.9

SMILES: COc1ccc(Cl)c2c1C(Cc1cc3c(cc1Br)OCO3)NCC2 (stereo not drawn) [Compound 39]
- MIC [2, 19]: 40 µg/mL
- MIC [2, 20]: 97 µM
- MIC ([17]; 336 h, 2 weeks at 37°C): 40 µg/mL
- MIC ([17]; value in square brackets): 97 µM
- IC50 [3, 21]: 178 µM
- IC50 [3, 22]: 73 µg/mL
- cell length [18]: 4.7 ± 1.4 μm
